Columns and labels:
[1] = target: T1, cPLA2 (Homo sapiens, UniProt P47712); assay: Coumarin assay (hydrolysis of 7-hydroxycoumarinyl 6-heptenoate); format: biochemical; details: 60 μM 7-hydroxycoumarinyl 6-heptenoate, 4 μg cPLA2, pH 7.5
T1 sequence (P47712 1-749): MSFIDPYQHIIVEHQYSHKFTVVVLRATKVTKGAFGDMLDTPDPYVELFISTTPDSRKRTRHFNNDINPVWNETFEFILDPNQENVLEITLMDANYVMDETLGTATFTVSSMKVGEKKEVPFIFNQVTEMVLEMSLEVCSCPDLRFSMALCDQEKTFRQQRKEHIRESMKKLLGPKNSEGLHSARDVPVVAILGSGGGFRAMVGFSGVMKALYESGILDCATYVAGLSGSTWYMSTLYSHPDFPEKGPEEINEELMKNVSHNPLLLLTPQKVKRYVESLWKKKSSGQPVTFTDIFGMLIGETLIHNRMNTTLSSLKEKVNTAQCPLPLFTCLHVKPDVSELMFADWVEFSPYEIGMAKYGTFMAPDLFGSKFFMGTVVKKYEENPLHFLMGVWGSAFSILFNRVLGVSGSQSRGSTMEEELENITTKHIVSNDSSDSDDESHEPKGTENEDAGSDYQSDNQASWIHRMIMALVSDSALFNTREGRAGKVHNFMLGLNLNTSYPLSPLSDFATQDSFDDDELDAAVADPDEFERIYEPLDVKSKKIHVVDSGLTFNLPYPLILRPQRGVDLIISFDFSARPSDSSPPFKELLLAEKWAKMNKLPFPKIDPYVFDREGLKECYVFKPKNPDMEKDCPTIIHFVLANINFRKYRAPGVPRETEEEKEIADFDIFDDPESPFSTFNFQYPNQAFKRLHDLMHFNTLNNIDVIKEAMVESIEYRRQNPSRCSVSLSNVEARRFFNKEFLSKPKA
Procedure: Inhibitors were mixed with 200 μL assay buffer (80 mM Hepes, pH 7.5, 1 mM EDTA) containing 60 μM 7-hydroxycoumarinyl 6-heptenoate. The reaction was initiated by adding 4 μg cPLA2 in 50 μL assay buffer. Hydrolysis of the 7-hydroxycounarimyl 6-heptenoate ester was monitored in a fluorometer by exciting at 360 nm and monitoring emission at 460 nm. Enzyme activity is proportional to the increase in emission at 460 nm per minute. In the presence of a cPLA2 inhibitor, the rate of increase is less.

[2] = test system: Human platelet aggregation; assay: Platelet Function Analyzer (PFA-100) study, whole human blood in vitro; format: cell-based; details: for prolongation of PFA-100 closure time: Collagen/Epinephrine cartridges, 10 minutes incubation, DMSO vehicle 125±13.9 seconds
Procedure: Platelet Function Analyzer (PFA-100®) Study
Human platelet aggregation was also studied using the platelet function analyzer (PFA-100®). […] Tubes were inverted 5 times and the blood was transferred to 15 ml polypropylene conical tubes. […] The manufacturers protocol was followed for the PFA-100 using Collagen/Epinephrine cartridges (0.5% DMSO alone in whole blood gave closure times of 125±13.9 seconds). Maximum closure time is 300 seconds, as set by the manufacturer. […] The blood from two mice was pooled to obtain enough blood (800 μl minimum) to conduct each assay.

[3] = Exposure after chow dosing in mice; details: mouse, in vivo, oral; ApoE knockout mice, chow diet supplemented at 3.3 mg/g chow
[4] = test system: platelet aggregation; assay: PFA-100 ex vivo platelet aggregation of chow dosed mice; format: in vivo; details: ApoE knockout mice, 3.3 mg/g chow for 2 days; control 142±16, p<0.02

| Molecule | IC50 [1] | also measured |
| --- | --- | --- |
| O=C(O)c1ccc(OCCc2c(CCNS(=O)(=O)Cc3cnc(Cl)c(Cl)c3)n(C(c3ccccc3)c3ccccc3)c3ccc(Cl)cc23)cc1 [Example 76] | 400 nM |  |
| Cc1cccc(C)c1CS(=O)(=O)NCCc1c(CCCc2ccc(C(=O)O)cc2)c2cc(Cl)ccc2n1C(c1ccccc1)c1ccccc1 [Example 52, 4-(3-[1-benzhydryl-5-chloro-2-(2-{[(2,6-dimethylbenzyl)-sulfonyl]amino}ethyl)-1H-indol-3-yl]propyl}benzoic acid] |  | prolongation of PFA-100 closure time [2]: able to prolong the closure time to varying extents; relative potency in PFA-100 closure time ([2]; compared: Examples 44, 52 and aspirin): most potent compound |
| CC(=O)Oc1ccccc1C(=O)O [aspirin, reference compound] |  | prolongation of PFA-100 closure time [2]: able to prolong the closure time to varying extents |
| O=C(O)c1ccc(OCCc2c(CCNS(=O)(=O)Cc3ccc(Cl)c(Cl)c3)n(C(c3ccccc3)c3ccccc3)c3ccc(Cl)cc23)cc1F [Example 296, 4-{2-[1-benzhydryl-5-chloro-2-(2-{[(3,4-dichlorobenzyl)sulfonyl]amino}ethyl)-1H-indol-3-yl]ethoxy}-2-fluorobenzoic acid] |  | melting point: 117 to 119 °C |
| O=C(O)c1ccc(OCCc2c(CCNS(=O)(=O)Cc3c(Cl)cccc3Cl)n(C(c3ccccc3)c3ccccc3)c3ccc(Cl)cc23)cc1 [Example 73, 4-{2-[1-Benzhydryl-5-chloro-2-(2-{[(2-dichlorobenzyl)sulfonyl]amino}ethyl)-1H-indol-3-yl]ethoxy}benzoic acid] | 300 nM |  |
| CC(C)(Cc1ccc(S(=O)(=O)CCc2c(CCNS(=O)(=O)Cc3ccc(Cl)c(Cl)c3)n(C(c3ccccc3)c3ccccc3)c3ccc(Cl)cc23)cc1)C(=O)O [Example 298, 3-[4-({2-[1-benzhydryl-5-chloro-2-(2-{[(3,4-dichlorobenzyl)sulfonyl]amino}ethyl)-1H-indol-3-yl]ethyl}sulfonyl)phenyl]-2,2-dimethylpropanoic acid] |  | melting point: 207 to 208 °C |
| O=C(O)c1ccc(OCCc2c(CCNS(=O)(=O)Cc3ccccc3Cl)n(C(c3ccccc3)c3ccccc3)c3ccc(Cl)cc23)cc1F [Example 297, 4-{2-[1-benzhydryl-5-chloro-2-(2-{[(2-chlorobenzyl)sulfonyl]amino}ethyl)-1H-indol-3-yl]ethoxy}-2-fluorobenzoic acid] |  | melting point: 132 to 135 °C |
| 2-{2-[1-Benzhydryl-5-chloro-2-(2-phenylmethanesulfonyl-amino-ethyl)-1H-indol-3-yl]-ethoxy}-benzoic acid [Example 283] | 500 nM |  |
| O=C(O)CCc1ccc(S(=O)(=O)CCc2c(CCNS(=O)(=O)Cc3ccccc3Cl)n(C(c3ccccc3)c3ccccc3)c3ccc(Cl)cc23)cc1 [Example 129, 3-[4-({2-[1-Benzhydryl-5-chloro-2-(2-{[(2-chloro-benzyl)sulfonyl]amino}ethyl)-1H-indol-3-yl]ethyl}sulfonyl)phenyl]propanoic acid] | 130 nM |  |
| O=C(O)c1ccc(OCCc2c(CCNS(=O)(=O)CCN3CC4CC3CO4)n(C(c3ccccc3)c3ccccc3)c3ccc(Cl)cc23)cc1 (stereo not shown) [Example 251, 4-(2-{1-benzhydryl-5-chloro-2-[2-({[2-(2-oxa-5-azabicyclo[2.2.1]hept-5-yl)ethyl]sulfonyl}amino)ethyl]-1H-indol-3-yl}ethoxy)benzoic acid] | 1500 nM |  |
| 4-{2-[1-benzhydryl-5-chloro-2-(2-{[(2,6-dimethylbenzyl)sulfonyl]amino}ethyl)-1H-indol-3-yl]ethoxy}benzoic acid [Example 279] | 160 nM |  |
| 4-[2-(1-benzhydryl-5-chloro-2-{2-[({2-[(3R,5S)-3,5-dimethylmorpholin-4-yl]ethyl}sulfonyl)amino]ethyl}-1H-indol-3-yl)ethoxy]benzoic acid [Example 250] | 2100 nM |  |
| NCc1ccccc1S(=O)(=O)NCCc1c(CCCc2ccc(C(=O)O)cc2)c2cc(Cl)ccc2n1C(c1ccccc1)c1ccccc1 [Example 156, 4-(3-{2-[2-({[2-(aminomethyl)phenyl]sulfonyl}amino)ethyl]-1-benzhydryl-5-chloro-1H-indol-3-yl}propyl)benzoic acid] | 160 nM |  |
| O=C(O)c1ccc(CCCc2c(CCNS(=O)(=O)Cc3ccc(Cl)c(Cl)c3)n(C(c3ccccc3)c3ccccc3)c3ccc(Cl)cc23)cc1 [Example 44, 4-{3-[1-benzhydryl-5-chloro-2-(2-{[(3,4-dichlorobenzyl)sulfonyl]amino}ethyl)-1H-indol-3-yl]propyl}benzoic acid] |  | Cmax [3]: ~500 ng/mL; closure time of the PFA-100, ex vivo [4]: 194 ± 49 s |

Reference: US20080009485A1, “Methods for the use of inhibitors of cytosolic phospholipase A2 in the treatment of thrombosis” (Wyeth, priority 2006, published 2008)
